Measured values published in patent US9884868B2, “TGF-beta inhibitors” (Rigel Pharmaceuticals, Inc., priority 2015, dated 2018).
Where a name gives a salt, the structure may show the parent alone. Read-outs that look alike come from different tables or passages of the source.

Key:
HIS-TGF-βR2 WT = HIS-TGF-βR2 WT (Homo sapiens (Human), UniProt P37173); assay: HTRF probe displacement assay with HIS-TGF-βR2 WT
HIS-TGF-βR1 T204D = HIS-TGF-βR1 T204D (Homo sapiens (Human), UniProt P36897, T204D); assay: HTRF probe displacement assay with HIS-TGF-βR1 T204D
[1] = read-out: TGFBr2 IC50, HTRF probe displacement, 1 nM HIS-TGF-βR2 WT, 1 hour at room temperature
[2] = read-out: TGFbr1 IC50, HTRF probe displacement, 1 nM HIS-TGF-βR1 T204D, 1 hour at room temperature

Chain of HIS-TGF-βR2 WT (P37173 23-567): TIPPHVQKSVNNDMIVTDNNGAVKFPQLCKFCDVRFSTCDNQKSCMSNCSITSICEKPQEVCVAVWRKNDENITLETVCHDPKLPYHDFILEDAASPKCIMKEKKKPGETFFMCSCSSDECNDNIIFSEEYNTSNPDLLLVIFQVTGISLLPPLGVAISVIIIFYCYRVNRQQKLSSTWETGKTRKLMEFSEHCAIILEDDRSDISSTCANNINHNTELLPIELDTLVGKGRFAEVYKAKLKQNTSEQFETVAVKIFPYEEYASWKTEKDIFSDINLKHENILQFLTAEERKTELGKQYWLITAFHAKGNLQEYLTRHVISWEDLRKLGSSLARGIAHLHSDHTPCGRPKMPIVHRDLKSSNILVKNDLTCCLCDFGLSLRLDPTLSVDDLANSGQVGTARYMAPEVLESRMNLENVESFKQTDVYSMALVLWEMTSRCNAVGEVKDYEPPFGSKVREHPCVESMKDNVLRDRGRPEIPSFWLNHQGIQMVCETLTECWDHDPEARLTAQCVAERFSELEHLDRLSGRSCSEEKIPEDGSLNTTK
Chain of HIS-TGF-βR1 T204D (P36897 34-503 T204D): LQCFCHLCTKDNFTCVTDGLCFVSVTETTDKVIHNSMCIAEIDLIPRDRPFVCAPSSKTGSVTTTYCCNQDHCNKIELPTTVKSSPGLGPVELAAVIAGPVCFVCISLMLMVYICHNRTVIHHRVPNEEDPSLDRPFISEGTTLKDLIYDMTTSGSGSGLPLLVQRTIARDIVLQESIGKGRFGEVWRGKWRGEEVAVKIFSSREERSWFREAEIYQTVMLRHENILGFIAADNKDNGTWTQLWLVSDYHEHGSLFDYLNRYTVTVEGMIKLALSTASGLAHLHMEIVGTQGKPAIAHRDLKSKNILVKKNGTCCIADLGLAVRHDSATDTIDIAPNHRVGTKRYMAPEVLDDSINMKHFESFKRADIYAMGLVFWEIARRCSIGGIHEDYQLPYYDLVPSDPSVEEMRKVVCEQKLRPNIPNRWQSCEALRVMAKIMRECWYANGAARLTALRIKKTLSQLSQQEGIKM

SMILES | IC50 (HIS-TGF-βR2 WT; [1]) [nM] | IC50 (HIS-TGF-βR1 T204D; [2]) [nM] | IC50 (HIS-TGF-βR2 WT) [nM] | IC50 (HIS-TGF-βR1 T204D) [nM]
N#Cc1cnc2ccc(-c3c(-c4ccc(F)cc4)ncn3C3CCC(F)(F)CC3)nn12 [8′, 6-(1-(4,4-difluorocyclohexyl)-4-(4-fluorophenyl)-1H-imidazol-5-yl)imidazo[1,2-b]pyridazine-3-carbonitrile] | > 15000 | 17.9 |  | 
COCC(C1CC1)n1cnc(-c2ccc(F)cc2)c1-c1ccc2ncc(C#N)n2n1 (stereo not drawn) [16′, 6-(1-(1-cyclopropyl-2-methoxyethyl)-4-(4-fluorophenyl)-1H-imidazol-5-yl)imidazo[1,2-b]pyridazine-3-carbonitrile] |  |  | > 15000 | 2.3
N#Cc1cnc2ccc(-c3c(-c4ccc(F)cc4)ncn3C3CCCCC3O)nn12 (stereo not drawn) [17′, 6-(4-(4-fluorophenyl)-1-(2-hydroxycyclohexyl)-1H-imidazol-5-yl)imidazo[1,2-b]pyridazine-3-carbonitrile] | > 15000 | 3.5 |  | 
N#Cc1cnc2ccc(-c3c(-c4ccc(F)cc4)ncn3[C@@H](CO)CC(F)(F)F)nn12 [28′, (R)-6-(4-(4-fluorophenyl)-1-(4,4,4-trifluoro-1-hydroxybutan-2-yl)-1H-imidazol-5-yl)imidazo[1,2-b]pyridazine-3-carbonitrile] | > 15000 | 1 |  | 
N#Cc1cnc2ccc(-c3c(-c4ccc(F)cc4)ncn3[C@H](CO)CC(F)(F)F)nn12 [29′, (S)-6-(4-(4-fluorophenyl)-1-(4,4,4-trifluoro-1-hydroxybutan-2-yl)-1H-imidazol-5-yl)imidazo[1,2-b]pyridazine-3-carbonitrile] | > 15000 | 6.4 |  | 
N#Cc1cnc2ccc(-c3c(-c4ccc(F)c(Cl)c4)ncn3C3CCOCC3)nn12 [48′, 6-(4-(3-chloro-4-fluorophenyl)-1-(tetrahydro-2H-pyran-4-yl)-1H-imidazol-5-yl)imidazo[1,2-b]pyridazine-3-carbonitrile] | > 15000 | 3.1 |  | 
N#Cc1cnc2ccc(-c3c(-c4ccc(F)c(Cl)c4)ncn3CC(O)C(F)(F)F)nn12 (stereo not drawn) [55′, 6-(4-(3-chloro-4-fluorophenyl)-1-(3,3,3-trifluoro-2-hydroxypropyl)-1H-imidazol-5-yl)imidazo[1,2-b]pyridazine-3-carbonitrile] |  |  | > 15000 | 6.7
N#Cc1cnc2ccc(-c3c(-c4ccc(F)cc4)ncn3CC(O)C(F)(F)F)cn12 (stereo not drawn) [93′, 6-(4-(4-fluorophenyl)-1-(3,3,3-trifluoro-2-hydroxypropyl)-1H-imidazol-5-yl)imidazo[1,2-a]pyridine-3-carbonitrile] |  |  | > 15000 | 576
N#Cc1cnc2ccc(-c3c(-c4ccc(F)c(Cl)c4)ncn3CCN3CCOCC3)cn12 [95′, 6-(4-(3-chloro-4-fluorophenyl)-1-(2-morpholinoethyl)-1H-imidazol-5-yl)imidazo[1,2-c]pyridine-3-carbonitrile] | > 15000 | 76.8 |  | 
N#Cc1cnc2ccc(-c3c(-c4ccc(F)c(Cl)c4)ncn3C3CC(F)(F)C3)cn12 [99′, 6-(4-(3-chloro-4-fluorophenyl)-1-(3,3-difluorocyclobutyl)-1H-imidazol-5-yl)imidazo[1,2-a]pyridine-3-carbonitrile] | > 15000 | 65.7 |  | 
NC(=O)c1cnc2ccc(-c3c(-c4ccc(F)cc4)ncn3C3CCC(F)(F)C3)nn12 (stereo not drawn) [108′, 6-(1-(3,3-difluorocyclopentyl)-4-(4-fluorophenyl)-1H-imidazol-5-yl)imidazo[1,2-b]pyridazine-3-carboxamide] | > 15000 | 2.1 |  | 
NC(=O)c1cnc2ccc(-c3c(-c4ccc(F)cc4)ncn3C3CCC(F)(F)CC3)nn12 [110′, 6-(1-(4,4-difluorocyclohexyl)-4-(4-fluorophenyl)-1H-imidazol-5-yl)imidazo[1,2-b]pyridazine-3-carboxamide] | > 15000 | 20.5 |  | 
NC(=O)c1cnc2ccc(-c3c(-c4ccc(F)c(Cl)c4)ncn3CCC(F)(F)F)nn12 [115′, 6-(4-(3-chloro-4-fluorophenyl)-1-(3,3,3-trifluoropropyl)-1H-imidazol-5-yl)imidazo[1,2-b]pyridazine-3-carboxamide] |  |  | > 15000 | 4.6
NC(=O)c1cnc2ccc(-c3c(-c4ccc(F)c(Cl)c4)ncn3C3CC(F)(F)C3)nn12 [118′, 6-(4-(3-chloro-4-fluorophenyl)-1-(3,3-difluorocyclobutyl)-1H-imidazol-5-yl)imidazo[1,2-b]pyridazine-3-carboxamide] | > 15000 | 1.4 |  | 

Next, values leading:

IC50 (HIS-TGF-βR2 WT; [1]) [nM] | IC50 (HIS-TGF-βR1 T204D; [2]) [nM] | IC50 (HIS-TGF-βR2 WT) [nM] | IC50 (HIS-TGF-βR1 T204D) [nM] | SMILES
> 15000 | 1200 |  |  | N#Cc1cnc2ccc(-c3c(-c4ccc(F)cc4)ncn3[C@]34CC5CC(C[C@](O)(C5)C3)C4)nn12 (single isomer, unassigned) [269′]
> 15000 | 6.5 |  |  | NC(=O)c1cnc2ccc(-c3c(-c4ccc(F)c(Cl)c4)ncn3CCN3CCOCC3)cn12 [120′, 6-(4-(3-chloro-4-fluorophenyl)-1-(2-morpholinoethyl)-1H-imidazol-5-yl)imidazo[1,2-a]pyridine-3-carboxamide]
> 15000 | 1.1 |  |  | NC(=O)c1cnc2ccc(-c3c(-c4ccc(F)c(Cl)c4)ncn3C3CC(F)(F)C3)cn12 [121′, 6-(4-(3-chloro-4-fluorophenyl)-1-(3,3-difluorocyclobutyl)-1H-imidazol-5-yl)imidazo[1,2-a]pyridine-3-carboxamide]
> 15000 | 1.8 |  |  | NC(=O)c1cnc2ccc(-c3c(-c4ccc(F)c(Cl)c4)ncn3C(CO)CO)cn12 [122′, 6-(4-(3-chloro-4-fluorophenyl)-1-(1,3-dihydroxypropan-2-yl)-1H-imidazol-5-yl)imidazo[1,2-a]pyridine-3-carboxamide]
> 15000 | 2.1 |  |  | COCC(C1CC1)n1cnc(-c2ccc(F)cc2)c1-c1ccc2ncc(C(N)=O)n2n1 (stereo not drawn) [130′, 6-(1-(1-cyclopropyl-2-methoxyethyl)-4-(4-fluorophenyl)-1H-imidazol-5-yl)imidazo[1,2-b]pyridazine-3-carboxamide]
> 15000 | 28.1 |  |  | CC(C)(O)CCn1cnc(-c2ccc(F)cc2)c1-c1ccc2ncc(C(N)=O)n2n1 [131′, 6-(4-(4-fluorophenyl)-1-(3-hydroxy-3-methylbutyl)-1H-imidazol-5-yl)imidazo[1,2-b]pyridazine-3-carboxamide]
> 15000 | 5.2 |  |  | CC(C)(O)CCn1cnc(-c2ccc(F)c(Cl)c2)c1-c1ccc2ncc(C(N)=O)n2n1 [139′, 6-(4-(3-chloro-4-fluorophenyl)-1-(3-hydroxy-3-methylbutyl)-1H-imidazol-5-yl)imidazo[1,2-b]pyridazine-3-carboxamide]
> 15000 | 9.1 |  |  | NC(=O)c1cnc2ccc(-c3c(-c4ccc(F)c(Cl)c4)ncn3CCN3CCCC3)nn12 [143′, 6-(4-(3-chloro-4-fluorophenyl)-1-(2-(pyrrolidin-1-yl)ethyl)-1H-imidazol-5-yl)imidazo[1,2-b]pyridazine-3-carboxamide]
> 15000 | 4.1 |  |  | NC(=O)c1cnc2ccc(-c3c(-c4ccc(F)c(Cl)c4)ncn3C3CCOCC3)nn12 [144′, 6-(4-(3-chloro-4-fluorophenyl)-1-(tetrahydro-2H-pyran-4-yl)-1H-imidazol-5-yl)imidazo[1,2-b]pyridazine-3-carboxamide]
> 15000 | 31.9 |  |  | CN(C)CCCn1cnc(-c2ccc(F)cc2)c1-c1ccc2ncc(C(N)=O)n2c1 [163′, 6-(1-(3-(dimethylamino)propyl)-4-(4-fluorophenyl)-1H-imidazol-5-yl)imidazo[1,2-a]pyridine-3-carboxamide]
> 15000 | 21.3 |  |  | NC(=O)c1cnc2ccc(-c3c(-c4ccc(F)cc4)ncn3CC(O)C(F)(F)F)cn12 (stereo not drawn) [169′, 6-(4-(4-fluorophenyl)-1-(3,3,3-trifluoro-2-hydroxypropyl)-1H-imidazol-5-yl)imidazo[1,2-a]pyridine-3-carboxamide]
> 15000 |  |  |  | N#Cc1cnc2ccc(-c3c(-c4cccc(-c5ccccc5)c4)ncn3CC(F)F)nn12 [257′, 6-(4-([1,1′-biphenyl]-3-yl)-1-(2,2-difluoroethyl)-1H-imidazol-5-yl)imidazo[1,2-b]pyridazine-3-carbonitrile]
> 15000 |  |  |  | N#Cc1cnc2ccc(-c3c(-c4ccc(F)cc4C(F)(F)F)ncn3CC(F)F)nn12 [261′, 6-(1-(2,2-difluoroethyl)-4-(4-fluoro-2-(trifluoromethyl)phenyl)-1H-imidazol-5-yl)imidazo[1,2-b]pyridazine-3-carbonitrile]
> 15000 |  |  |  | CC(=O)N1CCn2c(nc(-c3ccc(F)cc3)c2-c2ccc3ncc(C(N)=O)n3c2)C1 [292′, 6-(7-acetyl-2-(4-fluorophenyl)-5,6,7,8-tetrahydroimidazo[1,2-a]pyrazin-3-yl)imidazo[1,2-a]pyridine-3-carboxamide]
 | 43.3 |  |  | CN1CCn2c(nc(-c3ccc(F)cc3)c2-c2ccc3ncc(C(N)=O)n3c2)C1 [Example 293′, 6-(2-(4-fluorophenyl)-7-methyl-5,6,7,8-tetrahydroimidazo[1,2-a]pyrazin-3-yl)imidazo[1,2-a]pyridine-3-carboxamide]
 | 55 |  |  | CC(=O)Nc1nc(-c2ccc(F)cc2)c(-c2ccc3nccn3c2)[nH]1 [Example 295′, N-(4-(4-fluorophenyl)-5-(imidazo[1,2-a]pyridin-6-yl)-1H-imidazol-2-yl)acetamide]
 | 109 |  |  | Nc1nc(-c2ccc(F)cc2)c(-c2ccc3nccn3c2)n1CC(F)F [Example 296′, 1-(2,2-difluoroethyl)-4-(4-fluorophenyl)-5-(imidazo[1,2-a]pyridin-6-yl)-1H-imidazol-2-amine, 2 HCl]
 | 44.8 |  |  | N#Cc1cnc2ccc(-c3c(-c4ccc(F)cc4)nc(N)n3CC(F)F)cn12 [Example 298′, 6-(2-amino-1-(2,2-difluoroethyl)-4-(4-fluorophenyl)-1H-imidazol-5-yl)imidazo[1,2-a]pyridine-3-carbonitrile]
